Patent publication US9040715B2 (priority 2008, dated 2015)
≈ marks a conversion by molar mass, not a printed value.

Assays:
Candida albicans (CAF-2) = assay: Anti-fungal/anti-yeast activity: MIC50 (broth microdilution) and MFC; assay type: cell-based; settings: for MIC: read-out: MIC-50
Protocol: (§1) Fluconazole, an ergosterol inhibitor, and the beta-1,3-glucan inhibitor micafungin served as controls (See Tables 1-8).
(§2) The minimum inhibitory concentrations resulting in 50% growth inhibition (MIC50) of […] Candida species (C. albicans, C. tropicalis and C. glabrata, C. lusitaniae, C. parapsilosis, and C. apicola) as well as Aspergillus fumigatus to a set of novel synthetic compounds was determined in accordance with the guidelines in CLSI document M27-A2 (Clinical and Laboratory Standards Institute; Wayne, Pa.). The total volume of cells and drug was 100 μL per microtiter well, and each drug was diluted in RPMI to achieve final concentrations of 0.2-100 μg/ml. Uninoculated cultures were used as a reference standard. Stock inoculum suspensions were prepared from 24 hour cultures on YPD (yeast extract/peptone/dextrose) media at 30° C. For MIC determinations, an inoculum of 1.0×10^3 cells of Candidia and 2.0×10^3 cells of Aspergillus per well were used, and cells in diluted drugs were prepared in RPMI-1640 medium. MICs were determined both visually and spectrophotometrically at 24 hours and 48 h at 550 nm using a micro plate reader. The MIC50 endpoint was measured as the lowest drug concentration resulting in a reduction of growth of 50% or more compared with growth of the control.
(§3) The minimum fungicidal concentrations (MFCs) were determined for each drug-isolate-medium combination as follows. After 48 hours of incubation, 100 μL of each drug-isolate-medium combination (2 plates) was subcultured onto YPD plates (100 μL of solution was spread over the YPD plate). […] The plates were then incubated at 30° C. for 48 hours.
(§4) The in vitro fungicidal activities (MFCs) were determined for each drug-isolate-medium combination as follows. After 48 hours of incubation, 10 μL each drug-isolate-medium combination was spotted onto YPD plates (10 μL of each well is spotted sequentially with positive and negative control wells). […] The plates were then incubated at 30° C. for 48 hours.

Candidia parapsilosis = assay: as above; assay type: cell-based; settings: for Activity (fungicidal/fungistatic) / Ratio MFC/MIC: Candidia parapsilosis; for MIC: read-out: MIC-50
Protocol: as §1, §2, §3, §4

Candida apicola = assay: as above; assay type: cell-based; settings: for Activity (fungicidal/fungistatic) / MIC-50 / Ratio MFC/MIC: Candida apicola; for MFC: Starmerella apicola
Protocol: as §1, §2, §3, §4

Candida tropicalis = assay: as above; assay type: cell-based; settings: for MIC: read-out: MIC-50
Protocol: as §1, §2, §3, §4

Candida lusitaniae = assay: as above; assay type: cell-based; settings: for Activity (fungicidal/fungistatic) / Ratio MFC/MIC: Candida lusitaniae; for MFC / MIC: Clavispora lusitaniae; for MIC: read-out: MIC-50
Protocol: as §1, §2, §3, §4

Candida glabrata = assay: as above; assay type: cell-based; settings: for Activity (fungicidal/fungistatic) / Ratio MFC/MIC: Candida glabrata; for MFC / MIC: Nakaseomyces glabratus; for MIC: read-out: MIC-50
Protocol: as §1, §2, §3, §4

[1] = tested on: Saccharomyces cerevisiae (YPH501); assay: as above; assay type: cell-based; settings: for MFC / MIC: Saccharomyces cerevisiae; for Activity (fungicidal/fungistatic) / Ratio MFC/MIC: Saccharomyces cerevisiae (YPH501); for MIC: read-out: MIC-50
Huh7 cells = assay: Neutral red uptake assay (cytotoxicity); assay type: cell-based, human
Text: The neutral red uptake assay is a cytotoxicity test that is based on the ability of viable cells to incorporate and bind the supra-vital dye neutral red in the lysosomes. This weakly cationic dye penetrates cell membranes by non-ionic passive diffusion and concentrates in the lysosomes, where it binds by electrostatic hydrophobic bonds to anionic and phosphate groups of the lysosomal matrix. The dye is then extracted from the viable cells using an acidified ethanol solution, and the absorbance of the solubilized dye is read. When the cell dies or the pH gradient is reduced, the dye is not retained and consequently, the amount of retained dye is proportional to the number of viable cells. Most primary cells and cell lines can be used for this method. The HepG2 and Huh7, two human hepatoma cell lines, were used for this study. The cells were seeded in 96-well tissue culture plates and treated for 48 hours with the compounds. The plates were then incubated for 2 hours with a medium containing neutral red. The cells were subsequently washed, the dye was extracted in each well, and the absorbance was read using a spectrophotometer (FIG. 3 and Table 11).

Huh7 or HepG2 cell line = assay: MTT assay (cytotoxicity); assay type: cell-based, human; settings: 24 hours and 48 hours
Protocol: The MTT assay is a colorimetric assay that measures the reduction of yellow 3-(4,5-dimethylhiazol-2-yl)-2,5-diphenyl tetrazolium bromide (MTT) by mitochondrial succinate dehydrogenase. The MTT enters the cells and passes into the mitochondria where it is reduced to an insoluble, dark purple, formazan product. The cells are then solubilized with an organic solvent (e.g., isopropanol) and the released, solubilized formazan reagent is measured spectrophotometrically. Since reduction of MTT can only occur in metabolically active cells, the level of activity is a measure of the viability of the cells.
Cells of the Huh7 or HepG2 cell line were seeded in a 96 well plate. The plate was incubated overnight at 37° C. in a humidified incubator, 5% CO2. The test compounds were added to the plate. Different concentrations of drug were tested in triplicate along with a negative control. The final volume was adjusted to 100 μl per well. The plate was incubated overnight at 37° C. in a humidified incubator, 5% CO2. After 24 hours and 48 hours, MTT reagent (5 mg/ml, 10 μl/100 μl per well of the 96 well plate) was added and incubated at 37° C. for 3 hours. After 3 hours, 100 μl of the DMSO solution was added to each well and the plate was rocked at room temperature for 1 hour. The plate was then read on a plate reader at […].

Aspergillus fumigatus = assay: Anti-fungal/anti-yeast activity: MIC50 (broth microdilution) and MFC; assay type: cell-based
Protocol: as §1, §2, §3, §4

Row | Structure (SMILES) | Activity (fungicidal/fungistatic) (Candida albicans (CAF-2)) | MFC (Candida albicans (CAF-2)) | Ratio MFC/MIC (Candida albicans (CAF-2)) | MIC (Candida albicans (CAF-2)) | MFC (Candidia parapsilosis) | Activity (fungicidal/fungistatic) (Candidia parapsilosis) | Ratio MFC/MIC (Candidia parapsilosis) | MIC (Candidia parapsilosis) | Activity (fungicidal/fungistatic) (Candida apicola) | MIC-50 (Candida apicola) | Ratio MFC/MIC (Candida apicola) | MFC (Candida apicola) | Activity (fungicidal/fungistatic) (Candida tropicalis) | MFC (Candida tropicalis) | Ratio MFC/MIC (Candida tropicalis) | MIC (Candida tropicalis) | Activity (fungicidal/fungistatic) (Candida lusitaniae) | Ratio MFC/MIC (Candida lusitaniae) | MFC (Candida lusitaniae) | MIC (Candida lusitaniae) | further results
1 | CC(=O)NNC(=O)Cn1sc2ccccc2c1=O [Compound I-7] | fungicidal (An MFC/MIC ratio of less than four indicates that the compound is fungicidal) | 6.4 µg/mL | 1 | 6.4 µg/mL | 12.5 µg/mL | fungicidal (An MFC/MIC ratio of less than four indicates that the compound is fungicidal) | 1 | 12.5 µg/mL | fungicidal (An MFC/MIC ratio of less than four indicates that the compound is fungicidal) | 12.5 µg/mL | 1 | 12.5 µg/mL | fungicidal (An MFC/MIC ratio of less than four indicates that the compound is fungicidal) | 12.5 µg/mL | 1 | 12.5 µg/mL | fungicidal (An MFC/MIC ratio of less than four indicates that the compound is fungicidal) | 1 | 12.5 µg/mL | 12.5 µg/mL | Activity (fungicidal/fungistatic) (Candida glabrata): fungicidal (An MFC/MIC ratio of less than four indicates that the compound is fungicidal); Ratio MFC/MIC (Candida glabrata): 2; MFC (Candida glabrata): 50 µg/mL; MIC (Candida glabrata): 25 µg/mL; MFC [1]: 12.5 µg/mL (≈ 47.1 µM); Activity (fungicidal/fungistatic) [1]: fungicidal (An MFC/MIC ratio of less than four indicates that the compound is fungicidal); Ratio MFC/MIC [1]: 1; MIC [1]: 12.5 µg/mL (≈ 47.1 µM); Percentage Viability (Huh7 cells; 3.3 μg/mL (approx 1X MIC)): >100%; Percentage Viability (Huh7 cells; 10 μg/mL (approx 3X MIC)): >100%; Percentage Viability (Huh7 cells; 33 μg/mL (approx 10X MIC)): >100%; Percentage Viability (Huh7 cells; 100 μg/mL (approx 30X MIC)): >100%; Toxicity to mammalian cell lines (MTT assay) (Huh7 or HepG2 cell line): minimally toxic
2 | COc1ccc(Cc2nnc(Cn3sc4ccccc4c3=O)o2)cc1 [Compound I-3] | fungicidal (An MFC/MIC ratio of less than four indicates that the compound is fungicidal) | 12.5 µg/mL | 1 | 12.5 µg/mL | 12.5 µg/mL | fungicidal (An MFC/MIC ratio of less than four indicates that the compound is fungicidal) | 2 | 6.4 µg/mL | fungicidal (An MFC/MIC ratio of less than four indicates that the compound is fungicidal) | 6.4 µg/mL | 2 | 12.5 µg/mL | fungicidal (An MFC/MIC ratio of less than four indicates that the compound is fungicidal) | 12.5 µg/mL | 2 | 6.4 µg/mL | fungicidal (An MFC/MIC ratio of less than four indicates that the compound is fungicidal) | 2 | 12.5 µg/mL | 6.4 µg/mL | Activity (fungicidal/fungistatic) (Aspergillus fumigatus): fungicidal (An MFC/MIC ratio of less than four indicates that the compound is fungicidal); MFC (Aspergillus fumigatus): 12.5 µg/mL; MIC50 (Aspergillus fumigatus): 6.4 µg/mL; Ratio MFC/MIC (Aspergillus fumigatus): 2; Activity (fungicidal/fungistatic) (Candida glabrata): fungicidal (An MFC/MIC ratio of less than four indicates that the compound is fungicidal); Ratio MFC/MIC (Candida glabrata): 2; MFC (Candida glabrata): 50 µg/mL; MIC (Candida glabrata): 25 µg/mL; MFC [1]: 12.5 µg/mL (≈ 35.4 µM); Activity (fungicidal/fungistatic) [1]: fungicidal (An MFC/MIC ratio of less than four indicates that the compound is fungicidal); Ratio MFC/MIC [1]: 1; MIC [1]: 12.5 µg/mL (≈ 35.4 µM); Percentage Viability (Huh7 cells; 3.3 μg/mL (approx 1X MIC)): >100%; Percentage Viability (Huh7 cells; 10 μg/mL (approx 3X MIC)): >100%; Percentage Viability (Huh7 cells; 33 μg/mL (approx 10X MIC)): >100%; Percentage Viability (Huh7 cells; 100 μg/mL (approx 30X MIC)): >100%; Toxicity to mammalian cell lines (MTT assay) (Huh7 or HepG2 cell line): minimally toxic
3 | COc1ccc(CC(=O)NNC(=O)Cn2sc3ccccc3c2=O)cc1 [Compound I-6] | fungicidal (An MFC/MIC ratio of less than four indicates that the compound is fungicidal) | 12.5 µg/mL | 1 | 12.5 µg/mL | 12.5 µg/mL | fungicidal (An MFC/MIC ratio of less than four indicates that the compound is fungicidal) | 1 | 12.5 µg/mL | fungicidal (An MFC/MIC ratio of less than four indicates that the compound is fungicidal) | 12.5 µg/mL | 1 | 12.5 µg/mL | fungicidal (An MFC/MIC ratio of less than four indicates that the compound is fungicidal) | 12.5 µg/mL | 1 | 12.5 µg/mL | fungicidal (An MFC/MIC ratio of less than four indicates that the compound is fungicidal) | 1 | 12.5 µg/mL | 12.5 µg/mL | Activity (fungicidal/fungistatic) (Candida glabrata): fungicidal (An MFC/MIC ratio of less than four indicates that the compound is fungicidal); Ratio MFC/MIC (Candida glabrata): 1; MFC (Candida glabrata): 12.5 µg/mL; MIC (Candida glabrata): 12.5 µg/mL; MFC [1]: 12.5 µg/mL (≈ 33.7 µM); Activity (fungicidal/fungistatic) [1]: fungicidal (An MFC/MIC ratio of less than four indicates that the compound is fungicidal); Ratio MFC/MIC [1]: 1; MIC [1]: 12.5 µg/mL (≈ 33.7 µM); Percentage Viability (Huh7 cells; 3.3 μg/mL (approx 1X MIC)): >100%; Percentage Viability (Huh7 cells; 10 μg/mL (approx 3X MIC)): >100%; Percentage Viability (Huh7 cells; 33 μg/mL (approx 10X MIC)): >100%; Percentage Viability (Huh7 cells; 100 μg/mL (approx 30X MIC)): 67%; Toxicity to mammalian cell lines (MTT assay) (Huh7 or HepG2 cell line): minimally toxic
